The source made the active and inactive calls. No cut-off for these calls is given here. Where a SMILES comes first, the peptide text is derived from it. Bridges are numbered along the chain shown (N, C = ends).
Legend:
[1] = molecular target: Human immunodeficiency virus type 1 reverse transcriptase (Human immunodeficiency virus 1) (UniProt Q72547); test: Inhibition of recombinant HIV-1 group M subtype B reverse transcriptase p51/p66 expressed in Escherichia coli M15 assessed as change in melting temperature at 100 uM incubated for 1 hr by sypro orange dye based differential scanning fluorimetric analysis; conditions: HIV-1 M:B
[2] = molecular target: Human immunodeficiency virus type 1 reverse transcriptase (Human immunodeficiency virus 1) (UniProt Q72547); test: Inhibition of RNase H activity of recombinant HIV-1 BH10 reverse transcriptase p51/p66 expressed in Escherichia coli at 100 uM; conditions: Human immunodeficiency virus type 1 BH10
[3] = molecular target: T1, Human immunodeficiency virus type 1 reverse transcriptase (Human immunodeficiency virus 1, UniProt Q72547); test: Inhibition of recombinant HIV-1 BH10 reverse transcriptase p51/p66 expressed in Escherichia coli preincubated for 10 mins followed by D38/25PGA template-primer addition and measured after 10 to 30 secs by denaturing PAGE based single nucleotide incorporation assay; set-up: species or system Human immunodeficiency virus type 1 BH10
[4] = molecular target: T1, Human immunodeficiency virus type 1 reverse transcriptase; test: Inhibition of HIV-1 reverse transcriptase His-tagged p51 heterodimerization with HIV-1 reverse transcriptase p66 incubated for 16 hrs by ELISA
[5] = molecular target: T1, Human immunodeficiency virus type 1 reverse transcriptase; test: (§1) Inhibition of recombinant HIV-1 BH10 reverse transcriptase p51/p66 expressed in Escherichia coli assessed as reduction in recovery of DNA polymerase activity preincubated with 15% acetonitrile for 15 hrs followed by compound addition and acetonitrile reduced to <1% using poly(rA)/oligo(dT)16 as template/primer in presence of [3H]dTTP; set-up: species or system Human immunodeficiency virus type 1 BH10
[6] = molecular target: Human immunodeficiency virus type 1 reverse transcriptase (Human immunodeficiency virus 1) (UniProt Q72547); test: as §1, with “activity at 200 uM” for “activity”, “[3H]dTTP relative to control” for “[3H]dTTP”; conditions: Human immunodeficiency virus type 1 BH10

Row | Compound | ΔTm [1] [°C] | inhibition [2] | IC50 [3] [µM] | IC50 [4] [µM] | IC50 [5] [µM] | inhibition [6] [%]
1 | CC[C@H](C)[C@H](NC(=O)CNC(=O)[C@@H]1CCCN1C(=O)[C@@H](NC(=O)[C@H](CCC(=O)O)NC(=O)[C@H](CC(N)=O)NC(=O)[C@H](CC(N)=O)NC(=O)[C@@H](NC(=O)[C@H](CO)NC(=O)[C@@H]1CCCN1C(=O)[C@@H](NC(=O)[C@@H](NC(=O)[C@@H](N)Cc1ccccc1)[C@@H](C)O)[C@@H](C)CC)[C@@H](C)CC)C(C)O)C(=O)N[C@@H](CCCNC(=N)N)C(=O)N[C@@H](Cc1ccc(O)cc1)C(=O)O (single isomer, unassigned) | -15.6 | inactive | > 145 |  |  | 
2 | CC[C@H](C)[C@@H]1NC(=O)CNC(=O)[C@@H]2CCCN2C(=O)[C@H]([C@@H](C)O)NC(=O)C(CCC(=O)O)NC(=O)[C@H](CC(N)=O)NC(=O)C(CC(N)=O)NC(=O)[C@@H]([C@@H](C)CC)NC(=O)[C@H](CO)NC(=O)[C@@H]2CCCN2C(=O)[C@H]([C@@H](C)CC)NC(=O)[C@@H](N)CSSC[C@@H](C(=O)O)NC1=O (stereo partly drawn) | -14.5 | inactive | > 145 | 137 | > 250 | < 5
3 | CC[C@H](C)[C@@H]1NC(=O)[C@H](CO)NC(=O)[C@H](N)CSSC[C@@H](C(=O)O)NC(=O)[C@@H]2CCCN2C(=O)[C@H]([C@@H](C)O)NC(=O)[C@H](CCC(=O)O)NC(=O)[C@H](CC(N)=O)NC(=O)[C@H](CC(N)=O)NC1=O | -15.8 | inactive | > 145 | 61 | > 250 | 43
4 | Cc1cn([C@@H]2O[C@H](CO[Si](C)(C)C(C)(C)C)[C@]3(C=CS(=O)(=O)O3)[C@H]2O[Si](C)(C)C(C)(C)C)c(=O)[nH]c1=O | -1.4 |  |  |  |  | 

Continued, values first:

Row | ΔTm [1] [°C] | inhibition [2] | IC50 [3] [µM] | IC50 [4] [µM] | IC50 [5] [µM] | inhibition [6] [%] | Compound
5 | -15 | inactive | > 145 |  |  |  | CC[C@H](C)[C@@H]1NC(=O)[C@H](CCCNC(=N)N)NC(=O)[C@H](Cc2ccc(O)cc2)NC(=O)[C@H]2CCCN2C(=O)[C@@H]2CCCN2C(=O)[C@H](Cc2ccccc2)NC(=O)[C@H]([C@H](C)O)NC(=O)[C@H]([C@@H](C)CC)NC(=O)[C@@H]2CCCN2C(=O)[C@H](CC(N)=O)NC(=O)[C@H]([C@@H](C)CC)NC(=O)[C@@H](CO)NC(=O)[C@H](CC(N)=O)NC(=O)[C@@H](CCC(=O)O)NC(=O)[C@H]([C@H](C)O)NC(=O)[C@@H]2CCCN2C(=O)CNC1=O
6 | -13.6 | inactive | > 145 | > 150 |  |  | H-IPSINNETPGI-OH
7 | -15.8 | inactive | 109 | 37 | 203 |  | CC[C@H](C)[C@@H]1NC(=O)[C@@H](N)CSSC[C@@H](C(=O)O)NC(=O)[C@H](CCC(=O)O)NC(=O)[C@H](CC(N)=O)NC(=O)[C@H](CC(N)=O)NC1=O (H-CINNEC-OH; disulfide 1-6)

Reference: ChEMBL document CHEMBL4613297, “Peptides Mimicking the β7/β8 Loop of HIV-1 Reverse Transcriptase p51 as "Hotspot-Targeted" Dimerization Inhibitors” (ACS Med Chem Lett, 2020)
